Where two headings read alike, the source gives them in different places.
Experiments:
[1] = tested on: cIAP; assay: Determination of cIAP expression (western blotting); type: cell-based; settings: ACH-2 cells, 24 h; birinapant 50 nM, PEP005 5 nM, TNF-α 10 ng/ml
Procedure: ACH-2 cells (1 × 10^6 cells/ml) were treated with different concentrations of the drug for 24 h, and the cells were washed twice with PBS. Cells were homogenized by CelLytic M Cell Lysis Reagent (Sigma-Aldrich, St. Louis, MO, United States) containing a protease inhibitor cocktail (Nacalai Tesque, Kyoto, Japan) and were incubated at room temperature (RT) for 15 min. The cells were then centrifuged at 13,000 rpm for 15 min, and the supernatant of the whole cell lysate was collected. The bicinchoninic acid (BCA) protein assay (Thermo Scientific, Rockford, IL, United States) was used to measure the actual protein amount in the treated and untreated cells. The protein extracts were separated through sodium dodecyl sulfate polyacrylamide gel electrophoresis (SDS-PAGE) and then were blotted onto a Trans Blot Turbo polyvinylidene difluoride (PVDF) membrane (Bio-Rad, Hercules, CA, United States). Protein bands were visualized using 3,3′,5,5′-tetramethylbenzidine (TMB) solution (Wako Pure Chemical). The sources of the antibodies were as follows: c-IAP1 (D5G9), c-IAP2 (58C7), and XIAP (3B6) were purchased from Cell Signaling Technology (Danvers, MA, United States); β-actin (C4) was purchased from Santa Cruz Biotechnology.
Supplementary file Data_Sheet_5.PDF: FIGURE S5 Western blotting (WB) analysis for IAP family proteins in ACH-2 cells. Cells were exposed to birinapant (50 nM) in the presence or absence of PEP005 (5 nM), with TNF-α (10 ng/ml) co-treatment for 24 h, and cell lysates were used for WB analysis. Click here for additional data file.

[2] = tested on: PBMCs from a cART-treated HIV-1 patient; assay: Cytotoxicity in PBMCs from HIV-1-infected patient (PI staining, flow cytometry); type: cell-based, human; settings: PBMCs of cART-treated HIV-1 patient, 24 h; birinapant 50 nM, PEP005 5 nM
Procedure: Supplementary file Data_Sheet_3.PDF: FIGURE S3 The combined effect of birinapant (50 nM) and PEP005 (5 nM) on cytotoxicity in PBMCs obtained from HIV-1-infected patients. PBMCs from a cART-treated HIV-1 patient were cultured for 24 h in the presence or absence of drug(s), and the percentage of propidium iodide (PI)^+ cells were measured by flow cytometric analysis. Click here for additional data file.

[3] = tested on: latent HIV-1-infected ACH-2 cells; assay: HIV reactivation from latent cells: supernatant p24 antigen; type: cell-based; settings: for viral production (supernatant p24 antigen levels): day 2, single drug (Figure 1A)
Procedure: The reactivation of HIV-1 from latently infected cells was determined by the measurement of supernatant p24 antigen and intracellular HIV-1 RNA levels. ACH-2 cells or U1 cells (5 × 10^5 cells/mL) were placed in 96-well plates, and then the cells were incubated with different concentrations of drugs for 24 h to extract RNA and for 48 h to collect the supernatant. The increase in supernatant p24 antigen levels was measured using […] G1200 (Fujirebio, Tokyo, Japan). The total RNA was extracted using an RNeasy Mini Kit (Qiagen, Hilden, Germany), following the manufacturer’s protocols. The cDNA was synthesized using PrimeScript RT Master Mix (Takara Bio, Shiga, Japan), and quantitative real-time PCR analyses for the intracellular HIV-1 RNA were carried out with PowerUp^TM SYBR Green Master Mix (Applied Biosystems, Foster City, CA, United States). The oligonucleotide primers used were as follows: 5′-[…]-3′ (forward) and 5′-[…]-3′ (reverse) for HIV-RNA detection; 5′-[…]-3′ (forward) and 5′-[…]-3′ (reverse) for β-actin. The HIV-RNA expressions were normalized with that of β-actin, which was indicated as the relative quantity, and the increase in HIV-1 RNA levels in the presence of a drug was compared with that without a drug.
FIGURE 1 (A,B) The increase in viral production from ACH-2 cells (A) and U1 cells (B) was examined by supernatant p24 antigen levels on day 2. (C,D) Changes in the intracellular HIV-1 mRNA levels due to treatment with these drugs in ACH-2 cells (C) and U1 cells (D) after 24 h of incubation.
FIGURE 2 (A) Effect of birinapant when combined with TNF-α. The supernatant p24 levels with birinapant (1∼100 nM) in ACH-2 cell culture on day 2 are shown in white bars, and p24 values with birinapant when combined with TNF-α (10 ng/ml) are shown in black bars. (B) HIV-1 production from ACH-2 cells when reactivated by PEP005 (0.05∼50 nM) for 24 h. (C) Changes in the living cell numbers in the presence of drug(s) on days 1, 3, and 5.

[4] = Toxicity on PHA-stimulated PBMCs from healthy donor (WST-8 assay); type: cell-based; settings: human
Procedure: Table S1. CC50 values on PHA-stimulated PBMCs from healthy donor
PBMCs (2 x 10^6 cells/ml) were treated with birinapant or PEP005 and cultured for 3days. Cell viability was
Table S2. Toxicity of PEP005 and birinapant in combination
Agent (concentration) % replication
PEP005 (1 µM) + birinapant (1 µM) 65.5 %
PBMCs (2 x 10^6 cells/ml) were treated with birinapant (10 nM - 10 µM) and/or PEP005 (10 nM - 100 µM)
and cultured for 3 days. Cell viability was measured by WST-8 assay.

Compound | cIAP expression (western blotting) [1] | ratio of dead cells (PI staining) [2] | supernatant HIV-1 p24 levels ([3]; ACH-2 cells, after 24 h, PEP005 5 nM and higher (Figure 2B)) | increase of supernatant HIV-1 p24 levels compared with unstimulated ACH-2 cells ([3]; ACH-2 cells, day 2 (Figure 1A)) | viral production (supernatant p24 antigen levels) ([3]; ACH-2 cells) | CC50 at 3 days ([4]; PHA-stimulated PBMCs from healthy donor, 3 days, WST-8 assay, read-out: CC50 (µM) ± SD) | decrease of supernatant p24 levels ([3]; ACH-2 cells reactivated by PEP005 (or TNF-α), simultaneously treated with birinapant 50 nM, 24 h) | supernatant p24 antigen levels ([3]; ACH-2 cells, birinapant 1∼100 nM alone, day 2 (Figure 2A)) | CC50 at 3 days [4]
C/C=C(/C)C(=O)O[C@H]1C(C)=C[C@]23C(=O)[C@@H](C=C(CO)[C@@H](O)[C@]12O)[C@H]1[C@@H](C[C@H]3C)C1(C)C [PEP005, ingenol-3-angelate] | upregulation of cIAP-1 (and cIAP-2) | failed to increase the number of dead cells | reactivated and increased the supernatant HIV-1 p24 levels | > 100 fold | increased viral production | > 100 µM |  |  | 
CC[C@H](NC(=O)[C@H](C)NC)C(=O)N1C[C@@H](O)C[C@H]1Cc1c(-c2[nH]c3cc(F)ccc3c2C[C@@H]2C[C@H](O)CN2C(=O)[C@H](CC)NC(=O)[C@H](C)NC)[nH]c2cc(F)ccc12 [Birinapant] | decreased expression of cIAP | slightly increased the ratio of dead cells |  |  | only had a minor effect on HIV-1 reactivation |  | ~40% | failed to affect supernatant p24 antigen levels | 10.7 ± 0.2 µM

Source: article PMC6156138, “Combination of a Latency-Reversing Agent With a Smac Mimetic Minimizes Secondary HIV-1 Infection in vitro” (Frontiers in Microbiology, 2018)
